From patent US20090305954A1, “HISTIDINE-CONTAINING DIASTEREOMERIC PEPTIDES AND USES THEREOF” (Yeda Research and Development Co. Ltd., priority 2005, published 2009)
≈ marks a conversion by molar mass, not a printed value. Like-named read-outs stand apart in the source and are kept apart here. Square brackets hold non-standard residues; d marks the D form. Ends that are not written are not given here. Peptide text beside a SMILES is read from it.

Tests used:
22RV1 human PC cells = assay: XTT proliferation (cytotoxicity) assay, 22RV1; format: cell-based
Method: (§1) The CL1 human prostate carcinoma (PC) cell line is an androgen-independent (AI) subclone of LNCaP cell line, which was generated by culturing androgen-dependent (AD) LNCaP cells in charcoal-stripped, […], as described (Patel et al. 2000). 22RV1 human PC cells are AI sub-clones of the AD prostatic adenocarcinoma CWR22 xenograft (Sramkoski et al. 1999). CL1 and 22RV1 (ATCC, USA) were grown in RPMI-1640 supplemented with 10% FCS (Biological Industries, Beit Haemek, Israel). PC3 and DU145 are androgen-insensitive (AI) (non-responsive), invasive human prostate cancer cell lines. NIH-3T3 mouse fibroblast cell lines (ATCC, USA) were grown in DMEM supplemented with 10% BS. Murine Lewis lung carcinoma (LLC) cell lines were also grown in DMEM medium supplemented with 10% fetal calf serum and antibiotics under the same conditions as above.
(§2) A 96-well plate (Falcon) was used for the XTT proliferation assay. Cancer cells were grown for 24 hours (day 1) in RPMI-1640 medium ([…] cells/100 μl for LLC, CL1, 22RVI, DU 145 and PC3, respectively) supplemented with 10% fetal calf serum and antibiotics, at 37° C., in humidified atmosphere at 5% CO2 and 95% air, resulting in growth medium pH of 7.4. NIH-3T3 fibroblast cells (1×10^4 cells/100 μl) were grown in DMEM medium supplemented with 10% bovine calf serum and antibiotics under the same conditions as described above for the cancerous cells. Wells in the last two rows served as blanks (medium only, for measuring the background color of the medium) and 100% survival controls (cells and medium only without treatment), respectively.
(§3) In day 2, the peptides were dissolved in sterile PBS to a concentration of 200 μM (or 500 μM). The medium in the assay wells was replaced with 100 μl serum free medium. For the assays at pH 6, the medium was initially concentrated (×5 or ×10) and then diluted with double distilled water and addition of sodium carbonate. Before reaching the correct dilution, the medium was adjusted to pH 6 and then more water was added to reach the final dilution. The cells were grown in physiological pH, and the acidic pH was used only during the 24 hours incubation with the peptides. A sign for the correct acidity was a light yellow color of the medium. In line A of the plate, 160 μl of serum free medium was added, if the initial peptide concentration was 500 μM.
(§4) Peptide solutions, 100 μl (or 40 μl) were added to each assay well in line A, such that the final concentration of the peptide was […] and the volume 200 μl. The medium in the wells was mixed with multichannel pipette 5 times and 100 μl of it were transferred to the next row of wells (line B), to give a peptide concentration of 50 μM. The double dilution of the peptides continued downstream the plate in the same manner. The plates were then incubated for 24 h.
(§5) In day 3, XTT reaction solution was prepared by adding to 100 μl aliquots of activation solution (sodium 3′-[1-(phenyl-aminocarbonyl)-3,4-tetrazolium]-bis(4-methoxy-6-nitro) benzene sulfonic acid hydrate and N-methyl dibenzopyrazine methyl sulfate; mixed in a proportion of 50:1) (protected from light and kept in −20° C.), the substrate. 50 μl of XTT reaction solution were added to each well and the plates were incubated for 2 hours (37° C. and 5% CO2+95% air. In cases the incubation was not enough for the creation of the color, it was extended for up to 24 hours). The optical density was read at wavelength of 450 nm in an ELISA plate reader. Cell viability was determined relative to the control and final results were recorded. The results were confirmed using replications in at least three independent experiments. The LC50 for each peptide was obtained from the curve of cell viability versus concentration of peptide and taken from the concentration at which cell viability was 50%. The data shown in Table 1 are for only one experiment, but representative of all replications.

[1] = XTT proliferation (cytotoxicity) assay, normal fibroblasts; format: cell-based, mouse; settings: mouse, NIH-3T3 normal mouse fibroblasts, read-out: Lethal Concentration (LC50)
Method: as §1
(§6) The anticancer activity of the diastereomers 1, 5 and 11-16, 36-39, 42 and 44 was examined against human CL1 prostate cancer, murine LLC (Lewis lung carcinoma), DU 145 and PC3 cell lines. The cell selectivity of the diastereomeric peptides was also studied by examining their effect on NIH-3T3 normal mouse fibroblasts cell line.
as §2, §3, §4
as §5, with “The LC50 for each peptide was obtained from the curve of cell viability versus concentration of peptide and taken from the concentration at which cell viability was 50%. The data shown in Table 1 are for only one experiment, but representative of all replications.” left out

[2] = tested on: NIH-3T3 normal mouse fibroblasts cell line; assay: as above; format: cell-based; settings: NIH3T3, pH 7.4, 24 h
Method: as §1, §6, §2, §3, §4
as §5, with “The LC50 for each peptide was obtained from the curve of cell viability versus concentration of peptide and taken from the concentration at which cell viability was 50%. The data shown in Table 1 are for only one experiment, but representative of all replications.” left out

[3] = tested on: CL1 human prostate carcinoma cell line; assay: XTT proliferation (cytotoxicity) assay, CL1; format: cell-based
Method: as §1, §6, §2, §3, §4
as §5, with “The LC50 for each peptide was obtained from the curve of cell viability versus concentration of peptide and taken from the concentration at which cell viability was 50%. The data shown in Table 1 are for only one experiment, but representative of all replications.” left out

[4] = Acute toxicity test in mice (intravenous); format: in vivo; settings: for mortality: mice
Method: Acute toxicity of peptides 1, 13 and 16 was examined by intravenously injecting mice (n=3), each with one dose per day for 2 days of 0.5 ml solution containing peptides 1, 13 or 16 at 3, 9, 15, 20 and 30 mg/kg of body weight.
A week after injecting the peptides, blood samples were taken from the survived mice. […] Thus, the peptides 13 and 16 of the invention are not toxic even when administered at concentrations considerably higher than those necessary for their anticancer activity.

[5] = tested on: Murine Lewis lung carcinoma (LLC) cell line; assay: XTT proliferation (cytotoxicity) assay, LLC; format: cell-based
Method: as §1, §6, §2, §3, §4
as §5, with “The LC50 for each peptide was obtained from the curve of cell viability versus concentration of peptide and taken from the concentration at which cell viability was 50%. The data shown in Table 1 are for only one experiment, but representative of all replications.” left out

[6] = tested on: DU145 human prostate cancer cell line; assay: XTT proliferation (cytotoxicity) assay, DU145; format: cell-based
Method: as §1, §6, §2, §3, §4
as §5, with “The LC50 for each peptide was obtained from the curve of cell viability versus concentration of peptide and taken from the concentration at which cell viability was 50%. The data shown in Table 1 are for only one experiment, but representative of all replications.” left out

[7] = tested on: PC3 human prostate cancer cell line; assay: XTT proliferation (cytotoxicity) assay, PC3; format: cell-based; settings: PC3, pH 7.4, 24 h
Method: as §1, §6
A 96-well plate (Falcon) was used for the XTT proliferation assay. Cancer cells were grown for 24 hours (day 1) in RPMI-1640 medium (5×10^3, 7×10^3, 1×10^4 and 7×10^3 cells/100 μl for LLC, CL1, 22RVI, DU 145 and PC3, respectively) supplemented with 10% fetal calf serum and antibiotics, at 37° C., in humidified atmosphere at 5% CO2 and 95% air, resulting in growth medium pH of 7.4. […]
In day 3, XTT reaction solution was prepared by adding to 100 μl aliquots of activation solution (sodium 3′-[1-(phenyl-aminocarbonyl)-3,4-tetrazolium]-bis(4-methoxy-6-nitro) benzene sulfonic acid hydrate and N-methyl dibenzopyrazine methyl sulfate; mixed in a proportion of 50:1) (protected from light and kept in −20° C.), the substrate. […] The optical density was read at wavelength of 450 nm in an ELISA plate reader. Cell viability was determined relative to the control and final results were recorded. […]

[8] = tested on: AI CL1 human PC cells xenograft; assay: Inhibition of tumor growth in human prostate cancer xenografts, CL1; format: in vivo, nude male mice; settings: CL1 xenograft, 1 mg/kg intratumorally, 9 doses
Method: (§7) (i) Inhibition of tumor growth in human prostate cancer xenografts. Subcutaneouse (s.c.) implantation of human PC cells in mice was done as previously described in Gavish et al. (Gavish et al. 2002). Briefly, 0.1 ml AI CL1 or 22RV1 human PC cells (5×10^6 cells) in Matrigel were inoculated s.c. into the dorsal side of five to six week-old nude male mice weighing 20-25 g (Harlen Co., Israel). Two weeks after cell implantation, when the tumors diameter reached ≧5 mm (denoted as day 1), the diastereomer 13 and its all L-amino acid analog peptide (at 1 mg/kg, 0.1 mM), or vehicle (PBS, pH=7.4) were injected intratumorally (dosing volume of 2.5 ml/kg) three times a week for a total of 9 doses. Tumor size was measured by a caliper and recorded twice a week during a period of 28 days. Mice were weighed and tumor weight (mg) was estimated by using the formula of length×width×depth×0.52 in mm^3, assuming the specific gravity to be 1. At the end of the treatment, the mice were killed, and the tumors were removed, photographed, and weighed. The animal experimentation was conducted according to the rules of the Institutional Animal Care and Use Committee.

[9] = tested on: 22RV1 human PC cells xenograft; assay: Inhibition of tumor growth in human prostate cancer xenografts, 22RV1; format: in vivo, nude male mice; settings: 22RV1 xenograft, 1 mg/kg intratumorally, 9 doses
Method: as §7
Serum PSA levels. Four weeks after the first treatment, blood was withdrawn from the 22RV1-inoculated mice in order to determine the level of prostate specific antigen (PSA). The blood samples were taken directly to heparin containing tubes, centrifuged, and the supernatants were stored at −20° C. The CanAg PSA EIA kit (CanAg Diagnostics) was used to determine the total PSA in the mice plasma (Gavish et al., 2002). Tumor weight and PSA levels, represented as the mean±SE, were calculated from the raw data and then subjected to Student's t test. A value of P<0.05 was considered as statistically significant.

[10] = Interaction with Matrigel matrix, analysed by RP-HPLC and mass spectroscopy; format: in vitro ADME; settings: mixed with Matrigel matrix for one hour
[11] = i.v., 3 mg/kg, one dose per day for 2 days
[12] = i.v., 9 mg/kg, one dose per day for 2 days
[13] = i.v., 15 mg/kg, one dose per day for 2 days
[14] = i.v., 20 mg/kg, one dose per day for 2 days

| Compound | Lethal Concentration (LC50) (22RV1 human PC cells; 22RV1, pH 6, 24 h) [µg/mL] | CC50 at 24 h ([1]; NIH3T3, pH 6, 24 h) [µg/mL] | Lethal Concentration (LC50) ([3]; CL1, pH 7.4, 24 h) [µg/mL] | mortality [4, 11] | mortality [4, 12] | mortality [4, 13] | mortality [4, 14] | Lethal Concentration (LC50) ([5]; pH 7.4, 24 h) [µg/mL] | also measured |
| --- | --- | --- | --- | --- | --- | --- | --- | --- | --- |
| CC(C)C[C@H](NC(=O)[C@H](CC(C)C)NC(=O)[C@@H](Cc1c[nH]cn1)NC(=O)[C@H](CC(C)C)NC(=O)[C@H](CC(C)C)NC(=O)[C@H](Cc1c[nH]cn1)NC(=O)[C@@H](Cc1c[nH]cn1)NC(=O)[C@@H](CC(C)C)NC(=O)[C@H](CC(C)C)NC(=O)[C@@H](CCCCN)NC(=O)[C@H](Cc1c[nH]cn1)NC(=O)[C@H](CC(C)C)NC(=O)[C@@H](CC(C)C)NC(=O)[C@H](Cc1c[nH]cn1)NC(=O)[C@@H](N)CC(C)C)C(N)=O [Peptide 16] (H-LH[dL]LH[dK]L[dL][dH]HLL[dH]LL-NH2) | 12.5 | 25 (≈ 13.5 µM) | 12.5 | No mortality | No mortality | no mortality | no mortality | 50 | Lethal Concentration (LC50) [2]: 100 µg/mL; active concentration lower than against NIH-3T3 ([3]; CL1 vs NIH-3T3 at the same pH): at least two-fold lower; mortality ([4]; i.v., 30 mg/kg, one dose per day for 2 days): No mortality; blood differential and biochemistry tests ([4]; survived mice, a week after injection): in the range of normal values |
| CC(C)C[C@H](NC(=O)[C@H](CC(C)C)NC(=O)[C@@H](CCCCN)NC(=O)[C@H](CC(C)C)NC(=O)[C@H](CC(C)C)NC(=O)[C@H](CCCCN)NC(=O)[C@@H](CCCCN)NC(=O)[C@@H](CC(C)C)NC(=O)[C@H](CC(C)C)NC(=O)[C@@H](CCCCN)NC(=O)[C@H](CCCCN)NC(=O)[C@H](CC(C)C)NC(=O)[C@@H](CC(C)C)NC(=O)[C@H](CCCCN)NC(=O)[C@@H](N)CC(C)C)C(N)=O [Peptide 1, reference compound] (H-LK[dL]LK[dK]L[dL][dK]KLL[dK]LL-NH2) | 25 | 25 (≈ 13.9 µM) | 6.25 | No mortality | No mortality | 100% | 100% | 12.5 | Lethal Concentration (LC50) (22RV1 human PC cells; 22RV1, pH 7.4, 24 h): 12.5 µg/mL; Lethal Concentration (LC50) ([6]; DU145, pH 6, 24 h): 4.7 µg/mL; Lethal Concentration (LC50) ([6]; DU145, pH 7.4, 24 h): 4.7 µg/mL; CC50 at 24 h ([1]; NIH3T3, pH 7.4, 24 h): 50 µg/mL (≈ 27.7 µM); Lethal Concentration (LC50) ([3]; CL1, pH 6, 24 h): 9.3 µg/mL; mortality ([4]; concentrations considerably higher than those necessary for anticancer activity): 100%; Lethal Concentration (LC50) [7]: 6.2 µg/mL; Lethal Concentration (LC50) ([5]; pH 6, 24 h): 12.5 µg/mL |
| LKLLHKLLKHLLKLL-NH2 [all L-amino acid analog peptide, reference compound] |  |  |  |  |  |  |  |  | tumor weight [8]: inactive; tumor weight [9]: inactive; activity preserved upon interaction with the Matrigel matrix [10]: fully inactivated |
